Bounds are passed on as bounds.

Data set [1] addresses P-gp (human MDR1-expressing cells) (Homo sapiens (Human), UniProt P08183). The data set can be described thus: P-gp substrate test. Format: in vitro ADME. The note with it: efflux ratio (B→A/A→B) of MDR1-expressing cells compared with parent cells, Transwell monolayer. As for the experimental part: Test Example 14: P-gp Substrate Test
The compound of the present invention was added to one side of Transwell (registered trademark, CORNING) where human MDR1-expressing cells or parent cells have been monolayer-cultured. The cells were reacted for a constant time. The membrane permeability coefficients from the apical side toward the basolateral side (A→B) and from the basolateral side toward the apical side (B→A) were calculated for the MDR1-expressing cells or the parent cells, and the efflux ratio (ER; ratio of the membrane permeability coefficients of B→A and A→B) values of the MDR1-expressing cells and the parent cells were calculated. The efflux ratio (ER) values of the MDR1-expressing cells and the parent cells were compared to confirm whether or not the compound of the present invention would be a P-gp substrate.

Data set [2] concerns the target human recombinant D3 receptor (Homo sapiens (Human), UniProt P35462). In words: Test of binding inhibition for dopamine D3 receptor. The note with it: Jump-In HEK cell membranes, 2 nM [3H]-Methylspiperone, 120 min at 25° C.; read-out: hD3_Ki. As for the experimental part: Test Example 1: Test of Binding Inhibition for Dopamine D3 Receptor
(§1) (Experimental Conditions)
Cell membranes: Jump-In HEK cell membranes expressing human recombinant D3 receptor (4 μg/well)
(§2) Buffer solution: 50 mM Tris-HCl (35409-45, Nacalai Tesque) (pH 7.4) containing 120 mM NaCl (31320-05, Nacalai Tesque), 1 mM MgCl2.6H2O (20909-55, Nacalai Tesque), 5 mM KCl (28514-75, Nacalai Tesque) and 2 mM CaCl2 (067-31, NAKARAI CHEMICALS, LTD.)
Radioligand: (final concentration) 2 nM [^3H]-Methylspiperone ([^3H—N-methyl-]-Methylspiperone, NET-856, 83.8 Ci/mmol, PerkinElmer)
Non-specific ligand: (final concentration) 10 μM Butaclamol [(+)-Butaclamol Hydrochloride, D033, Sigma]
(§3) SPA beads solution: SPA beads [WGA PVT SPA Scintillation Beads, RPNQ0001 (500 mg), RPNQ0060 (2 g), PerkinElmer] (0.2 mg/well)
(§4) Incubation time and temperature: 120 min at 25° C.
(§5) Butaclamol or the compounds of the present invention were weighed and DMSO was added to make a 10 mM solution. This solution was diluted to each concentration.
[^3H]-Methylspiperone was weighed and the buffer solution was added to make a 6 nM solution.
(§6) SPA beads were weighed and stirred in water to make a 50 mg/mL solution. Using this solution, a mixture with the cell membranes was prepared.
(§7) 225 nL of the solutions of the non-specific ligand or the compounds of the present invention at each concentration (in case of vehicle, final concentration 0.3% DMSO) were added in each well of a 384-well white/clear bottom microplate (3706, Corning). Jump-In HEK Cell membranes (final reaction amount: 4 μg protein/well), the SPA beads solution (final reaction amount: 0.2 mg/well) and the buffer solution were mixed and the mixed solution was left still for 1 hour or more at 4° C. Then, 50 μL of the mixture was added to each well of the plate. In addition, 25 μL of 6 nM [^3H]-Methylspiperone (final concentration: 2 nM) was added to each well. The plate was sealed by putting TopSeal-A 96/384 well (6050185, PerkinElmer, Inc.) on the top of the plate, mixed using stirring deaerator (Well Tornado, FK-62, Sakaki-elc.) and incubated for 120 min at 25° C. After incubation, the radioactivity of [^3H]-Methylspiperone which was bonded to D3 receptor was determined by liquid scintillation counter (1450 Microbeta, PerkinElmer) in each well. Non-specific binding was calculated based on the radioactivity of [^3H]-Methylspiperone in the presence of 10 μM non-labeled Butaclamol. The total binding was calculated using the radioactivity of [^3H]-Methylspiperone in the absence of the compounds of the present invention (vehicle). The Ki values were calculated from dose-response curves.
(§8) Binding activities of the compounds of the present invention were calculated from the following Binding Inhibition Rate (%): Inhibition Rate(%)=[1−(c−a)/(b−a)]×100 • a: Average cpm of non-specific binding • b: Average cpm of total binding • c: Cpm in the presence of each test compound

Data set [3] deals with human recombinant D2 receptor (Homo sapiens (Human), UniProt P14416). In words: Test of binding inhibition for dopamine D2 receptor. The note with it: Jump-In HEK cell membranes, 1.2 nM [3H]-Methylspiperone, 120 min at 25° C.; read-out: hD2_Ki. The procedure: Test Example 2: Test of Binding Inhibition for Dopamine D2 Receptor
Chain of human recombinant D2 receptor (P14416 whole entry): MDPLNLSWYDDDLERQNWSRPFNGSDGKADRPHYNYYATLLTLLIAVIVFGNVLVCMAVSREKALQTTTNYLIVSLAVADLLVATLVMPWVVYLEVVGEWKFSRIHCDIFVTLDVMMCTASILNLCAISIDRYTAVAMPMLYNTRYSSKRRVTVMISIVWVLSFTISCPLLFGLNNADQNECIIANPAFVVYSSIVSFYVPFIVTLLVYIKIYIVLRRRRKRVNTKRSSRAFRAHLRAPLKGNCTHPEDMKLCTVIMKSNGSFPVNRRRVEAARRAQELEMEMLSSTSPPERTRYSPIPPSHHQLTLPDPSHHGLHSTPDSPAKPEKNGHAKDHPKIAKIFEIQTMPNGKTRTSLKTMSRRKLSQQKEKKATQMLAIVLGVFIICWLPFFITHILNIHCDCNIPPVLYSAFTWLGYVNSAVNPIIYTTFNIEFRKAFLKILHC
as §1
Cell membranes: Jump-In HEK cell membranes expressing human recombinant D2 receptor (2 μg/well)
as §2
Radioligand: (final concentration) 1.2 nM [^3H]-Methylspiperone ([^3H—N-methyl-]-Methylspiperone, NET-856, 83.8 Ci/mmol, PerkinElmer)
Non-specific ligand: (final concentration) 10 μM Butaclamol [(+)-Butaclamol Hydrochloride, D033; Sigma]
as §3, §4, §5
[^3H]-Methylspiperone was weighed and the buffer solution was added to make a 3.6 nM solution.
as §6
as §7, with “amount: 2” for “amount: 4”, “SPA bead” for “SPA beads”, “of 3.6” for “of 6”, “concentration: 1.2” for “concentration: 2”, “(6050185, PerkinElmer)” for “(6050185, PerkinElmer, Inc.)”, “to D2” for “to D3”
as §8

Chain of human recombinant D3 receptor (P35462 whole entry): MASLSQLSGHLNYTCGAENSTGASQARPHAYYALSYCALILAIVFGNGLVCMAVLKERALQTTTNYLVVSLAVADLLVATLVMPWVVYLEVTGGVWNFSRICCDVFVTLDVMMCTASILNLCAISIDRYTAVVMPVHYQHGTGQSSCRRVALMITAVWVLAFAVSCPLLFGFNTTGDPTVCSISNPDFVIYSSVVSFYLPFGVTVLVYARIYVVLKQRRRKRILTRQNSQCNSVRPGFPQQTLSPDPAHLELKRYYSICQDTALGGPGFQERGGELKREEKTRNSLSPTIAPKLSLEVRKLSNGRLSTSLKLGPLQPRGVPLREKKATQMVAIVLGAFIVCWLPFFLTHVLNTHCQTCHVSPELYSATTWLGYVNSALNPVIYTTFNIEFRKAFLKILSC
Chain of P-gp (human MDR1-expressing cells) (P08183 whole entry): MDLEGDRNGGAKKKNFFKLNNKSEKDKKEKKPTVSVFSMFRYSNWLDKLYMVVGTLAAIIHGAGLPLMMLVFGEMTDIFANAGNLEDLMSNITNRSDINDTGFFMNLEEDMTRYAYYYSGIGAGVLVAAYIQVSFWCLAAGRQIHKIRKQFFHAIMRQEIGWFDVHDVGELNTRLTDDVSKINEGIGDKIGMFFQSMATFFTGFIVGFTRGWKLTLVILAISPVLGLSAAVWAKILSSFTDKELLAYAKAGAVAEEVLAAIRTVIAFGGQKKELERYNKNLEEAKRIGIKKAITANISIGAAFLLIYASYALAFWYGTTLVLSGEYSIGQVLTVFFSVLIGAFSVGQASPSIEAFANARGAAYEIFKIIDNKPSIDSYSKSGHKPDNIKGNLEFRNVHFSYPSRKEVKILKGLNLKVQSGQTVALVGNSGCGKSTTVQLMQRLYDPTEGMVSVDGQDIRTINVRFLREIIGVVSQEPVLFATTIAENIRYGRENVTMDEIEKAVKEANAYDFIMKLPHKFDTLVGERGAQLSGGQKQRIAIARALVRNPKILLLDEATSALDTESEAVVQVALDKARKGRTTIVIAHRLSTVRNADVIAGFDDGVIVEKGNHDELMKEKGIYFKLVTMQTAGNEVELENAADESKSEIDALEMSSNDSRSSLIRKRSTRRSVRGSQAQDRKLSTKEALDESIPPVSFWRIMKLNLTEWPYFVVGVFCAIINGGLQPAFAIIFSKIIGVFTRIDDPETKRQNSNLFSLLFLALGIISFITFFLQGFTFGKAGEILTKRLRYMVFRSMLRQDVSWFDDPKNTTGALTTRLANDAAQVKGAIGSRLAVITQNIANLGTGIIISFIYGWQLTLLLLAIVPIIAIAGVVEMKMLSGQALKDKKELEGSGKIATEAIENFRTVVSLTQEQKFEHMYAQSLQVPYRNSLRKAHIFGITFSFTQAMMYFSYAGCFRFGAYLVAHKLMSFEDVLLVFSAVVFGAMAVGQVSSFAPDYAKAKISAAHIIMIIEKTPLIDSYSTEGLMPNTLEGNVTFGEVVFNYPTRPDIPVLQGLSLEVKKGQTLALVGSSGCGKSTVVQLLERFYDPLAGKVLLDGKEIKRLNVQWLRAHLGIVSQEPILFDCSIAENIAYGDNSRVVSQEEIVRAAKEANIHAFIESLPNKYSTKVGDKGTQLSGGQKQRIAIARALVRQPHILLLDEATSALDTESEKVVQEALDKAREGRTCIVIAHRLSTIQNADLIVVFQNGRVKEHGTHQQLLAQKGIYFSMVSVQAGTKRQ

For `CCc1cc(C23CC2CN(CC[C@H]2CC[C@H](NC(=O)c4cccc5nn(C)cc45)CC2)C3)no1` (stereo partly shown) [Compound I-034], the “P-gp ER ratio” value in data set [1] stood at 1.3. For the same compound, the Ki in data set [2] is 0.71 nM; in data set [3], 730 nM.
For `Cc1ncccc1C(=O)N[C@H]1CC[C@H](CCN2C[C@@H]3C[C@]3(c3cc(C(C)(F)F)on3)C2)CC1` [Compound I-036], the Ki in data set [2] is 0.25 nM; in data set [3], 190 nM.
In the same order, the values of `CCc1cc([C@]23C[C@H]2CN(CC[C@H]2CC[C@H](NC(=O)c4cccc5nn(C)cc45)CC2)C3)no1` [Compound I-037] are 0.7 nM and 290 nM.
In the same order, the values of `CCn1c(C(=O)N[C@H]2CC[C@H](CCN3C[C@@H]4C[C@]4(c4cc(C(C)(F)F)on4)C3)CC2)cccc1=O` [Compound I-038] are 0.073 nM and 91 nM.
In the same order, the values of `Cn1ncc(CC(=O)N[C@H]2CC[C@H](CCN3C[C@@H]4C[C@]4(c4cc(C(C)(F)F)on4)C3)CC2)n1` [Compound I-039] are 0.39 nM and 300 nM.
As to `Cc1cnc(CC(=O)N[C@H]2CC[C@H](CCN3C[C@@H]4C[C@]4(c4cc(C(C)(F)F)on4)C3)CC2)o1` [Compound I-040], the figures for the Ki in data set [2] and in data set [3] were 0.56 nM and 350 nM, respectively.
On to `Cc1ncc(CC(=O)N[C@H]2CC[C@H](CCN3C[C@@H]4C[C@]4(c4cc(C(C)(F)F)on4)C3)CC2)o1` [Compound I-041], for which the figures for the Ki in data set [2] and in data set [3] were 0.28 nM and 240 nM, respectively.
For the compound `Cc1cc(CC(=O)N[C@H]2CC[C@H](CCN3C[C@@H]4C[C@]4(c4cc(C(C)(F)F)on4)C3)CC2)on1` [Compound I-042], the Ki was determined as 0.061 nM in data set [2] and 1300 nM in data set [3].
Consider `Cn1cc(CC(=O)N[C@H]2CC[C@H](CCN3C[C@@H]4C[C@]4(c4cc(C(C)(F)F)on4)C3)CC2)cn1` [Compound I-043], for which the Ki was 0.45 nM in data set [2] and 270 nM in data set [3].
The matching figures for `Cn1cc(OCC(=O)N[C@H]2CC[C@H](CCN3C[C@@H]4C[C@]4(c4cc(C(C)(F)F)on4)C3)CC2)cn1` [Compound I-044]: 0.83 nM and 220 nM.
The matching figures for `CN1Cc2c(C(=O)N[C@H]3CC[C@H](CCN4C[C@@H]5C[C@]5(c5cc(C(C)(F)F)on5)C4)CC3)cccc2C1=O` [Compound I-045]: 0.13 nM and 86 nM.
In the case of `Cc1ncc(OCC(=O)N[C@H]2CC[C@H](CCN3C[C@@H]4C[C@]4(c4cc(C(C)(F)F)on4)C3)CC2)cn1` [Compound I-046], the “P-gp ER ratio” value in data set [1] was 1.9. The Ki in data set [2] turned out to be 0.2 nM; in data set [3] it was 330 nM.
Consider `CCc1cc([C@]23C[C@H]2CN(CC[C@H]2CC[C@H](NC(=O)c4cccnc4C)CC2)C3)no1` [Compound I-047], for which the Ki in data set [2] stood at 1.4 nM; in data set [3], 530 nM.
In the same order, the values of `CCc1cc([C@]23C[C@H]2CN(CC[C@H]2CC[C@H](NC(=O)COc4cnn(C)c4)CC2)C3)no1` [Compound I-048] are 0.71 nM and 550 nM.
The matching figures for `CCc1cc([C@]23C[C@H]2CN(CC[C@H]2CC[C@H](NC(=O)COc4cnc(C)nc4)CC2)C3)no1` [Compound I-049]: 0.44 nM and 830 nM.
In the same order, the values of `CCc1cc([C@]23C[C@H]2CN(CC[C@H]2CC[C@H](NC(=O)c4ccc(F)c5nn(C)cc45)CC2)C3)no1` [Compound I-050] are 0.42 nM and 200 nM.
As for `CCc1cc([C@]23C[C@H]2CN(CC[C@H]2CC[C@H](NC(=O)/C=C/c4cnc(C)nc4)CC2)C3)no1` [Compound I-051], the Ki is 0.3 nM in data set [2] and 380 nM in data set [3].
The matching figures for `CCc1cc([C@]23C[C@H]2CN(CC[C@H]2CC[C@H](NC(=O)Cc4ncc(C)o4)CC2)C3)no1` [Compound I-054]: 1.2 nM and 780 nM.
The matching figures for `CCc1cc([C@]23C[C@H]2CN(CC[C@H]2CC[C@H](NC(=O)Cc4cc(C)no4)CC2)C3)no1` [Compound I-055]: 0.23 nM and 850 nM.
`CCc1cc([C@]23C[C@H]2CN(CC[C@H]2CC[C@H](NC(=O)Cc4cnn(C)c4)CC2)C3)no1` [Compound I-056]: the Ki in data set [2] was 0.62 nM; in data set [3], 1000 nM.
In the same order, the values of `CCc1cc([C@]23C[C@H]2CN(CC[C@H]2CC[C@H](NC(=O)c4cccn5nccc45)CC2)C3)no1` [Compound I-057] are 0.47 nM and 230 nM.
For `CCc1cc([C@]23C[C@H]2CN(CC[C@H]2CC[C@H](NC(=O)Cc4noc(C)n4)CC2)C3)no1` [Compound I-058], the Ki amounted to 1.3 nM in data set [2] and 790 nM in data set [3].
The matching figures for `CCc1cc([C@]23C[C@H]2CN(CC[C@H]2CC[C@H](NC(=O)Cc4nnc(C)s4)CC2)C3)no1` [Compound I-059]: 0.77 nM and 550 nM.
In the same order, the values of `Cn1cc2c(C(=O)N[C@H]3CC[C@](F)(CCN4C[C@@H]5C[C@]5(c5cc(C(C)(F)F)on5)C4)CC3)cccc2n1` [II-1] are 0.42 nM and over 2300 nM.
In the same order, the values of `Cn1cc2c(C(=O)N[C@H]3CC[C@H](CCN4CC5CC5(c5cc(C6CC6)on5)C4)CC3)cccc2n1` (stereo partly shown) [II-2] are 0.2 nM and 380 nM.
For the compound `Cn1cc(CC(=O)N[C@H]2CC[C@H](CCN3C[C@@H]4C[C@]4(c4cc(C5CC5)on4)C3)CC2)cn1` [II-3], the Ki in data set [2] was 0.36 nM; in data set [3] it was 730 nM.
As to `Cc1ncc(OCC(=O)N[C@H]2CC[C@H](CCN3C[C@@H]4C[C@]4(c4cc(C5CC5)on4)C3)CC2)cn1` [II-4], the Ki in data set [2] was 0.45 nM; in data set [3], 730 nM.
On to `Cn1ncc(CC(=O)N[C@H]2CC[C@H](CCN3C[C@@H]4C[C@]4(c4cc(C5CC5)on4)C3)CC2)n1` [II-5], for which the Ki in data set [2] turned out to be 0.71 nM; in data set [3] it was 860 nM.

Source of the values: US11447484B2, “Cyclic compound having dopamine D3 receptor antagonistic effect” (Shionogi & Co., Ltd., priority 2018, dated 2022).
